Patent US20250223268A1, “4-Methylsulfonylbenzamide Compound, Preparation Method, Herbicidal Composition And Use” (Jiangsu Flag Chemical Industry Co., Ltd., priority 2022, published 2025)

Key:
Assay in all cases: Greenhouse herbicidal activity assay, post-emergence
Type in all cases: in vivo
[1] = test system: Echinochloa crusgalli; conditions: Post-emergence test, rate 150 g a.i./hm^2; grade by fresh weight inhibition rate
Description: (§1) Post-emergence: Seeds of gramineous weeds (Echinochloa crusgalli, Echinochloa crusgalli var. zelayensis, Echinochloa phyllopogon, Eleusine indica, Digitaria sanguinalis, Leptochloa chinensis, Setaria viridis, Alopecurus japonicus Steud, Beckmannia syzigachne, Polypogon fugax, Alopecurus aequalis, Lolium multiflorum, Poa annua, Aegilops tataschii, Avena fatua, Alopecurus myosuroides, Bromus japonicus), broadleaf weeds (Eclipta prostrata, Amaranthus retroflexus, Rorippa indica, Myosoton aquaticum, Veronica didyma, Galium aparine, Solanum nigrum, Xanthium sibiricum, Conyza canadensis, Sesbania cannabina, Sagittaria trifolia), and Cyperus iria (Cyperus iria, Scirpus juncoides, Cyperus difformis, etc.) were sown in plastic pots (7 cm diameter) with nutrient soil and bottom holes. Crop seeds (including Oryza sativa subsp. indica, Oryza sativa subsp. japonica, Oryza sativa L. var. Glutinosa matsum, Triticum aestivum, Zea mays, Sorghum bicolor, Setaria italica, Glycine max, Gossypium hirsutum, Brassica napus, Arachis hypogaea) were sown in plastic pots (10 cm diameter) with nutrient soil and bottom holes. After sowing, the pots were placed in the growth chamber until the plants reached the 3-6 leaf stage for foliar spraying. Post-treatment, the materials were air-dried naturally and returned to the growth chamber. Results were assessed 14-21 days later.
(§2) • A: Fresh weight inhibition rate≥80% to 100%; • B: Fresh weight inhibition rate[…] to <80%; • C: Fresh weight inhibition rate≥40% to <60%; • D: Fresh weight inhibition rate≥20% to <40%; • E: Fresh weight inhibition rate<20%; • NT: Not tested.

[2] = test system: Eclipta prostrata; conditions: Post-emergence test, rate 150 g a.i./hm^2, grade by fresh weight inhibition rate
Description: as §1, §2

[3] = test system: Digitaria sanguinalis; conditions: Post-emergence test, rate 150 g a.i./hm^2, grade by fresh weight inhibition rate
Description: as §1, §2

[4] = test system: Cyperus iria; conditions: Post-emergence test, rate 150 g a.i./hm^2, grade by fresh weight inhibition rate
Description: as §1, §2

[5] = test system: Leptochloa chinensis; conditions: Post-emergence test, rate 150 g a.i./hm^2, grade by fresh weight inhibition rate
Description: as §1, §2

CC(C)[S+]([O-])c1c(S(C)(=O)=O)ccc(C(=O)Nc2ncnn2C)c1Cl (single isomer, unassigned) [Compound 2-8]
Control efficacy grade, Echinochloa crusgalli [1]: A (Fresh weight inhibition rate≥80% to 100%) | Control efficacy grade, Eclipta prostrata [2]: A (Fresh weight inhibition rate≥80% to 100%) | Control efficacy grade, Digitaria sanguinalis [3]: A (Fresh weight inhibition rate≥80% to 100%) | Control efficacy grade, Cyperus iria [4]: A (Fresh weight inhibition rate≥80% to 100%) | Control efficacy grade, Leptochloa chinensis [5]: A (Fresh weight inhibition rate≥80% to 100%)

Cc1nnc(NC(=O)c2ccc(S(C)(=O)=O)c([S+]([O-])CC(F)(F)F)c2Cl)o1 (racemic) [Compound 3-98]
Control efficacy grade, Echinochloa crusgalli [1]: A (Fresh weight inhibition rate≥80% to 100%) | Control efficacy grade, Eclipta prostrata [2]: A (Fresh weight inhibition rate≥80% to 100%) | Control efficacy grade, Digitaria sanguinalis [3]: A (Fresh weight inhibition rate≥80% to 100%) | Control efficacy grade, Cyperus iria [4]: A (Fresh weight inhibition rate≥80% to 100%) | Control efficacy grade, Leptochloa chinensis [5]: A (Fresh weight inhibition rate≥80% to 100%)

CS(=O)(=O)c1ccc(C(=O)Nc2nnco2)c(Cl)c1SCCC#N [Compound 3-373]
Control efficacy grade, Echinochloa crusgalli [1]: A (Fresh weight inhibition rate≥80% to 100%) | Control efficacy grade, Eclipta prostrata [2]: A (Fresh weight inhibition rate≥80% to 100%) | Control efficacy grade, Digitaria sanguinalis [3]: A (Fresh weight inhibition rate≥80% to 100%) | Control efficacy grade, Cyperus iria [4]: A (Fresh weight inhibition rate≥80% to 100%) | Control efficacy grade, Leptochloa chinensis [5]: A (Fresh weight inhibition rate≥80% to 100%)

CCC(C)[S+]([O-])c1c(S(C)(=O)=O)ccc(C(=O)Nc2nnnn2C)c1Cl (mixture of isomers) [Compound 1-19]
Control efficacy grade, Echinochloa crusgalli [1]: A (Fresh weight inhibition rate≥80% to 100%) | Control efficacy grade, Eclipta prostrata [2]: A (Fresh weight inhibition rate≥80% to 100%) | Control efficacy grade, Digitaria sanguinalis [3]: A (Fresh weight inhibition rate≥80% to 100%) | Control efficacy grade, Leptochloa chinensis [5]: A (Fresh weight inhibition rate≥80% to 100%)

Cc1nnc(NC(=O)c2ccc(S(C)(=O)=O)c(SC(C)C#N)c2Cl)o1 (stereo not shown) [Compound 3-202]
Control efficacy grade, Echinochloa crusgalli [1]: A (Fresh weight inhibition rate≥80% to 100%) | Control efficacy grade, Digitaria sanguinalis [3]: B (Fresh weight inhibition rate≥260% to <80%) | Control efficacy grade, Cyperus iria [4]: B (Fresh weight inhibition rate≥260% to <80%) | Control efficacy grade, Leptochloa chinensis [5]: A (Fresh weight inhibition rate≥80% to 100%)

Cc1nonc1NC(=O)c1ccc(S(C)(=O)=O)c([S+]([O-])C(C)C)c1Cl (racemic) [Compound 4-7]
Control efficacy grade, Echinochloa crusgalli [1]: A (Fresh weight inhibition rate≥80% to 100%) | Control efficacy grade, Eclipta prostrata [2]: A (Fresh weight inhibition rate≥80% to 100%) | Control efficacy grade, Digitaria sanguinalis [3]: B (Fresh weight inhibition rate≥260% to <80%) | Control efficacy grade, Leptochloa chinensis [5]: A (Fresh weight inhibition rate≥80% to 100%)

Cn1ncnc1NC(=O)c1ccc(S(C)(=O)=O)c(SC2CC2)c1Cl [Compound 2-32]
Control efficacy grade, Echinochloa crusgalli [1]: A (Fresh weight inhibition rate≥80% to 100%) | Control efficacy grade, Eclipta prostrata [2]: A (Fresh weight inhibition rate≥80% to 100%) | Control efficacy grade, Digitaria sanguinalis [3]: A (Fresh weight inhibition rate≥80% to 100%) | Control efficacy grade, Leptochloa chinensis [5]: A (Fresh weight inhibition rate≥80% to 100%)

CCCSc1c(S(C)(=O)=O)ccc(C(=O)Nc2nnc(C3CC3)o2)c1Cl [Compound 3-615]
Control efficacy grade, Eclipta prostrata [2]: A (Fresh weight inhibition rate≥80% to 100%) | Control efficacy grade, Digitaria sanguinalis [3]: A (Fresh weight inhibition rate≥80% to 100%) | Control efficacy grade, Cyperus iria [4]: A (Fresh weight inhibition rate≥80% to 100%) | Control efficacy grade, Leptochloa chinensis [5]: A (Fresh weight inhibition rate≥80% to 100%)

Cc1nonc1NC(=O)c1ccc(S(C)(=O)=O)c(S(=O)(=O)C(C)C)c1Cl [Compound 4-10]
Control efficacy grade, Echinochloa crusgalli [1]: A (Fresh weight inhibition rate≥80% to 100%) | Control efficacy grade, Digitaria sanguinalis [3]: B (Fresh weight inhibition rate≥260% to <80%) | Control efficacy grade, Cyperus iria [4]: A (Fresh weight inhibition rate≥80% to 100%) | Control efficacy grade, Leptochloa chinensis [5]: A (Fresh weight inhibition rate≥80% to 100%)

CCCSc1c(S(C)(=O)=O)ccc(C(=O)Nc2nonc2C)c1Cl [Compound 4-1, 2-chloro-N-(4-methyl-1,2,5-oxadiazol-3-yl)-4-(methylsulfonyl)-3-(propylthio)benzamide]
pest or weed control at 150 g/ha ([2]; Eclipta prostrata, read-out: Control efficacy grade, Eclipta prostrata): 80 to 100% | pest or weed control at 150 g/ha ([3]; Digitaria sanguinalis, read-out: Control efficacy grade, Digitaria sanguinalis): 80 to 100% | pest or weed control at 150 g/ha ([4]; Cyperus iria, read-out: Control efficacy grade, Cyperus iria): 80 to 100% | pest or weed control at 150 g/ha ([5]; Dinebra chinensis, read-out: Control efficacy grade, Leptochloa chinensis): 80 to 100%

Cc1nnc(NC(=O)c2ccc(S(C)(=O)=O)c(SC(C)(C)C)c2Cl)o1 [Compound 3-32]
Control efficacy grade, Echinochloa crusgalli [1]: A (Fresh weight inhibition rate≥80% to 100%) | Control efficacy grade, Digitaria sanguinalis [3]: B (Fresh weight inhibition rate≥260% to <80%) | Control efficacy grade, Cyperus iria [4]: A (Fresh weight inhibition rate≥80% to 100%) | Control efficacy grade, Leptochloa chinensis [5]: A (Fresh weight inhibition rate≥80% to 100%)

Cc1nnc(NC(=O)c2ccc(S(C)(=O)=O)c(SCC(F)(F)C(F)(F)F)c2Cl)o1 [Compound 3-172]
Control efficacy grade, Eclipta prostrata [2]: A (Fresh weight inhibition rate≥80% to 100%) | Control efficacy grade, Digitaria sanguinalis [3]: A (Fresh weight inhibition rate≥80% to 100%) | Control efficacy grade, Cyperus iria [4]: A (Fresh weight inhibition rate≥80% to 100%) | Control efficacy grade, Leptochloa chinensis [5]: A (Fresh weight inhibition rate≥80% to 100%)

CS(=O)(=O)c1ccc(C(=O)Nc2nnc(C3CC3)o2)c(Cl)c1[S+]([O-])C1CC1 (racemic) [Compound 3-652]
Control efficacy grade, Eclipta prostrata [2]: A (Fresh weight inhibition rate≥80% to 100%) | Control efficacy grade, Digitaria sanguinalis [3]: A (Fresh weight inhibition rate≥80% to 100%) | Control efficacy grade, Cyperus iria [4]: A (Fresh weight inhibition rate≥80% to 100%) | Control efficacy grade, Leptochloa chinensis [5]: A (Fresh weight inhibition rate≥80% to 100%)

C=CCSc1c(S(C)(=O)=O)ccc(C(=O)Nc2nnc(CC)o2)c1Cl [Compound 3-454]
Control efficacy grade, Echinochloa crusgalli [1]: A (Fresh weight inhibition rate≥80% to 100%) | Control efficacy grade, Digitaria sanguinalis [3]: A (Fresh weight inhibition rate≥80% to 100%) | Control efficacy grade, Cyperus iria [4]: A (Fresh weight inhibition rate≥80% to 100%) | Control efficacy grade, Leptochloa chinensis [5]: A (Fresh weight inhibition rate≥80% to 100%)

Cc1nnc(NC(=O)c2ccc(S(C)(=O)=O)c([S+]([O-])Cc3ccccc3)c2Cl)o1 (racemic) [Compound 3-68]
Control efficacy grade, Eclipta prostrata [2]: A (Fresh weight inhibition rate≥80% to 100%) | Control efficacy grade, Digitaria sanguinalis [3]: B (Fresh weight inhibition rate≥260% to <80%) | Control efficacy grade, Cyperus iria [4]: A (Fresh weight inhibition rate≥80% to 100%) | Control efficacy grade, Leptochloa chinensis [5]: A (Fresh weight inhibition rate≥80% to 100%)

Cc1nnc(NC(=O)c2ccc(S(C)(=O)=O)c([S+]([O-])CCCl)c2Cl)o1 (racemic) [Compound 3-213]
Control efficacy grade, Echinochloa crusgalli [1]: A (Fresh weight inhibition rate≥80% to 100%) | Control efficacy grade, Digitaria sanguinalis [3]: A (Fresh weight inhibition rate≥80% to 100%) | Control efficacy grade, Cyperus iria [4]: A (Fresh weight inhibition rate≥80% to 100%) | Control efficacy grade, Leptochloa chinensis [5]: A (Fresh weight inhibition rate≥80% to 100%)

CCc1nnc(NC(=O)c2ccc(S(C)(=O)=O)c(SCC(F)F)c2Cl)o1 [Compound 3-444]
Control efficacy grade, Echinochloa crusgalli [1]: A (Fresh weight inhibition rate≥80% to 100%) | Control efficacy grade, Digitaria sanguinalis [3]: B (Fresh weight inhibition rate≥260% to <80%) | Control efficacy grade, Leptochloa chinensis [5]: A (Fresh weight inhibition rate≥80% to 100%)
